Assay [1] relates to VCaP prostate cancer cells. Briefly: Cell proliferation assay (CellTiter-Glo), VCaP. The format is cell-based, human. To be noted: cell growth inhibition, 5 days, CellTiter-Glo. The protocol:
The kinase inhibitory activities of the compounds against CDK12 and CDK13 were preliminarily evaluated using the ADP-Glo kinase assay. Cell growth inhibition was determined in VCaP prostate cancer cells, which were characterized as being sensitive to CDK12/13 inhibition.[14]
Cells were seeded in 96-well plates and incubated at 37 °C and 5% CO2. After overnight incubation, serial dilutions of tested compounds were added to the plate. The assay was tested with Cell Titer-Glo (Promega) after 5 days. The luminescence signal was detected by the Infinite M1000 Pro plate reader (Tecan), and the IC50 values were calculated by GraphPad Prism 10.

The next assay addresses T1, CDK15/CycY (Homo sapiens, UniProt Q96Q40).
T1 construct: ICE Bioscience Inc. (assay service)
The assay is described as follows: CDK family panel, ADP-Glo. The format is biochemical. In general terms: ADP-Glo first removes unused ATP, then detects ADP through luciferase.

In another assay the target is T2, CDK1/CycA2 (Homo sapiens, UniProt P06493).
T2 construct: ICE Bioscience Inc. (assay service)
The assay is described as follows: CDK family panel, ADP-Glo. Type of assay: biochemical.

In another assay the target is T3, CDK18/CycY (Homo sapiens, UniProt Q07002).
T3 construct: ICE Bioscience Inc. (assay service)
Briefly: CDK family panel, ADP-Glo. The format is biochemical.

In another assay the target is T4, CDK8/CycC (Homo sapiens, UniProt P49336).
T4 construct: ICE Bioscience Inc. (assay service)
Briefly: CDK family panel, ADP-Glo. Type of assay: biochemical.

A further assay relates to VCaP CRPC xenograft. The assay is described as follows: In vivo efficacy, VCaP CRPC mouse model. Also noted: species or system mice. To be noted: YJZ5118 i.p., q.d., uprosertib p.o., 5x/week, 27 days, compared to vehicle. On the procedure:
All the animal experiments were performed under an approved animal protocol (Protocol ID: PRO00010006, PI, Arul Chinnaiyan) by the Institutional Animal Care & Use Committee of the University of Michigan. Six- to eight-week-old NSG (Jackson Laboratory) or CB17SCID female (Charles River Laboratory) mice were in a regular SPF housing room prior to cell injection. Briefly, 5 ×10^6 cells of VCaP CRPC were injected […] of NSG or CB17SCID mice, respectively. After tumor size reached approximately 200–400 mm^3, animals were subjected to drug treatment. […] Vehicle consisted of 20% PEG400, 6% Cremophor EL, and 74% PBS solution. Tumors were collected at the end of the experiment for Western blot analysis.

Assay [2] has as its system phosphorylation of RNA polymerase II at Ser2. Briefly: Washout experiment, RNA polymerase II Ser2 phosphorylation (immunoblot). The format is cell-based, human. To be noted: VCaP cells; YJZ5118 100 nM. The protocol: The previously reported reversible inhibitor 10 was included for comparison. VCaP cells were treated with the compounds for 6 h, after which the compounds were removed, and the cells were cultured in compound-free media for 5 days.
Generally, after incubation with the compounds for the indicated time, the tested cells were washed by cold PBS buffer (Gibco) and lysed with RIPA buffer (ThermoFisher Scientific) supplemented with cOmplete protease inhibitor cocktail tablets (Sigma-Aldrich). The cell lysate was treated with ultrasonic for 20s, following a centrifugation of 14000 rpm at 4°C for 10 min. The protein concentration was measured by BCA protein assay (DC Protein Assay, BIO-RAD). An equal amount of protein was loaded to 4–12% Bis-Tris gels and underwent SDS-PAGE electrophoresis at 120 V for 90 min. The proteins were transferred to a nitrocellulose (NC) membrane (Thermo Scientific) and the membranes were blocked in 5% milk buffer at room temperature for 1h, followed by incubating with primary antibody at the recommended dilution at 4°C for overnight. The membranes were washed by PBST for three times and incubated with anti-rabbit or anti-mouse HRP-conjugated secondary antibody for 1h at room temperature, after which the membranes were imaged by Odyssey CLx Imager (LiCOR Biosciences).
On the technique in general: In western blotting, separated proteins are transferred to a membrane and probed.

Where only a bound is given, the exact number is not on record here.

T2 sequence (P06493 whole entry, species assumed): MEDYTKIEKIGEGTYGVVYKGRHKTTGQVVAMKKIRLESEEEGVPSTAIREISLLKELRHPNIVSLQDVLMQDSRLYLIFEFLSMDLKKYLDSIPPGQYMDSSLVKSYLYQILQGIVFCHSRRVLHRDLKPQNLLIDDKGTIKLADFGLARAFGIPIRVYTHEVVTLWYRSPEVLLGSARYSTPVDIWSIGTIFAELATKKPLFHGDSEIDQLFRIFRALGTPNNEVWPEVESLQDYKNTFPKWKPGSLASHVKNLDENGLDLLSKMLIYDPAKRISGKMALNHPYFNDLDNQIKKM
T2 sequence (P20248 whole entry partner, species assumed): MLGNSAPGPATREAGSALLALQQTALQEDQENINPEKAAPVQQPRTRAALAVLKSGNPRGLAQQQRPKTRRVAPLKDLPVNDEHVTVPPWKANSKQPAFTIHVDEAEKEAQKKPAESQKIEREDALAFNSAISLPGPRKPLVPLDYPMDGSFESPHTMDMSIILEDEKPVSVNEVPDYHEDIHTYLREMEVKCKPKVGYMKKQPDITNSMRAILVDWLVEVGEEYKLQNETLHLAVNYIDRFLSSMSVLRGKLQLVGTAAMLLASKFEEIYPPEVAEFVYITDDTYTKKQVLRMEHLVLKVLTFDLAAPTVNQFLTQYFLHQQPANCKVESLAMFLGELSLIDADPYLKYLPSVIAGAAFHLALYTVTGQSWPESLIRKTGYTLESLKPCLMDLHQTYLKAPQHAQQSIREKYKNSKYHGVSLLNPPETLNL
T1 sequence (Q96Q40 whole entry, species assumed): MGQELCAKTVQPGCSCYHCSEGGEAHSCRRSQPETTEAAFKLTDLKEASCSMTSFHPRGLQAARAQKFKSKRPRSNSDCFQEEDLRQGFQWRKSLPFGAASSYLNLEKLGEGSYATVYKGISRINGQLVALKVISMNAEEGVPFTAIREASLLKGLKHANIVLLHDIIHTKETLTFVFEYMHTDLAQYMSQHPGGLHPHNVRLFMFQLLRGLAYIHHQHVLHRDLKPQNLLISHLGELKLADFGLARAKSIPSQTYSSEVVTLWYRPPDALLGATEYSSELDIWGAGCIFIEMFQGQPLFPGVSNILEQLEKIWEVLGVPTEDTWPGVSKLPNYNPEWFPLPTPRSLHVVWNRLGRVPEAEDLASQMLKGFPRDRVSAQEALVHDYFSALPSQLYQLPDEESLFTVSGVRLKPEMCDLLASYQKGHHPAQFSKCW
T1 sequence (Q8ND76 whole entry partner, species assumed): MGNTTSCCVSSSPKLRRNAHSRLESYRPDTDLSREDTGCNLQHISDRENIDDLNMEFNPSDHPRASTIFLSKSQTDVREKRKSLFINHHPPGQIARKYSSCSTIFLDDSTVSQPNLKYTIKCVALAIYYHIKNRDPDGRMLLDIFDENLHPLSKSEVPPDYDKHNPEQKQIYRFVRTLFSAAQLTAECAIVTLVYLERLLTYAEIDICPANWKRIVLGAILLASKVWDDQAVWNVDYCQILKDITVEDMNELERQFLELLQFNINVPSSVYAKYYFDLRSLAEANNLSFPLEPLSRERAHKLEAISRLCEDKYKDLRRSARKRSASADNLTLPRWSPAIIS
T4 sequence (P49336 whole entry, species assumed): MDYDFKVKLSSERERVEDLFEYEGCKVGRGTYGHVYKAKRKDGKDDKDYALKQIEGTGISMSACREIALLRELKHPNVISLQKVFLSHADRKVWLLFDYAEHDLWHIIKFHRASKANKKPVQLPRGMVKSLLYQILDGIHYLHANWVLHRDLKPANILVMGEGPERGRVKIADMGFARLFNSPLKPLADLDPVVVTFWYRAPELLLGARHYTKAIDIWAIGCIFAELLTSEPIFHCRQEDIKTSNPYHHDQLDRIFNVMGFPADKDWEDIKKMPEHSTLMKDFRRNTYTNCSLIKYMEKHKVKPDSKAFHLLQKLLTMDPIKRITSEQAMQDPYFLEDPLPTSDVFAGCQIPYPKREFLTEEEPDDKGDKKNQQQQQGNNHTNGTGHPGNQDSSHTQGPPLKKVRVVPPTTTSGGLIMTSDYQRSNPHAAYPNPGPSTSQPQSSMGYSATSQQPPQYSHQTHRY
T4 sequence (P24863 whole entry partner, species assumed): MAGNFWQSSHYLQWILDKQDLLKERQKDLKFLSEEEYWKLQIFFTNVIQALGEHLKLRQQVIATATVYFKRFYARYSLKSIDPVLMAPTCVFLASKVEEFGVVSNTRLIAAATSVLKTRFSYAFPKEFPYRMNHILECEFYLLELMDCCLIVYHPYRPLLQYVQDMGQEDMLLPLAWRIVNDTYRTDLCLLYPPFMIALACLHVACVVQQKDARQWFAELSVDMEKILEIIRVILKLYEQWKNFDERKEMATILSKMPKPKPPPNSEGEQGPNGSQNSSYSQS
T3 sequence (Q07002 whole entry, species assumed): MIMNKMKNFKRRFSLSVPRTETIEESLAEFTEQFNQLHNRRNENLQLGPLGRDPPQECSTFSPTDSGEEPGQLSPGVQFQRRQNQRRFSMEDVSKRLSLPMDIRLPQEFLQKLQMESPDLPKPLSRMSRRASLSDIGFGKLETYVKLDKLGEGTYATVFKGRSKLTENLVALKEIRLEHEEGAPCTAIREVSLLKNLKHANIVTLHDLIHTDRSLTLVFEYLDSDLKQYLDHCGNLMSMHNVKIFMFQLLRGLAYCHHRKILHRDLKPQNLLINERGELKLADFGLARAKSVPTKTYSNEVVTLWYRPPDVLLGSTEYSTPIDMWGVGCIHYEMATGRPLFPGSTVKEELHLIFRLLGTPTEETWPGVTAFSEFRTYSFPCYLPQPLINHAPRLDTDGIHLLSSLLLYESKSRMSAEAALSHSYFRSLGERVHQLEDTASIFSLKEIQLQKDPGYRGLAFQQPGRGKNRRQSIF
T3 sequence (Q8ND76 whole entry partner, species assumed): as the sequence (Q8ND76 whole entry partner, species assumed) above
Procedure for CDK1/CycA2: (§1) All the kinase activity were performed using an ADP-Glo kinase assay by ICE Bioscience Inc. (Beijing, China).
Procedure for CDK15/CycY: as §1
Procedure for CDK18/CycY: All the kinase activity were performed using an ADP-Glo kinase assay by ICE Bioscience Inc. (Beijing, China). Kinome selectivity profiles (KINOMEscan profiling) and Kd detection were performed by Eurofins DiscoveryX Corporation (San Diego, CA, USA).
Procedure for CDK8/CycC: as §1

One may read the IC50 as the point on the concentration scale where inhibition reaches its midpoint. Consider `C=CC(=O)Nc1cc(N(C(=O)NCc2ccccc2)[C@H]2CC[C@H](Nc3ccc(C#N)cn3)CC2)ccc1N1CCC(N(C)C)CC1` [YJZ5118, N-(5-(3-benzyl-1-((1r,4r)-4-((5-cyanopyridin-2-yl)amino)cyclohexyl)ureido)-2-(4-(dimethylamino)piperidin-1-yl)phenyl)acrylamide], for which the IC50 in assay [1] (Homo sapiens, VCaP, 120 h) was below 40 nM; in assay [1] (listed as 14k (YJZ5118)), 23.7 nM; against CDK15/CycY it was above 10000 nM; at CDK1/CycA2, above 10000 nM; at CDK18/CycY, above 10000 nM; on CDK8/CycC, above 10000 nM. Moreover, the tumor growth result in the assay on VCaP CRPC xenograft is on record as “significant reduction in tumor growth”. In assay [2], the “RNA polymerase II Ser2 phosphorylation after washout” value is recorded as “complete loss of phosphorylation observed at 15 h after washout”.
